Results as given in ChEMBL document CHEMBL4602695, “Discovery and SARs of 5-Chloro-N4-phenyl-N2-(pyridin-2-yl)pyrimidine-2,4-diamine Derivatives as Oral Available and Dual CDK 6 and 9 Inhibitors with Potent Antitumor Activity” (J Med Chem, 2020).
pIC50, pKd: −log10 of the molar value.

Key:
CDK9/cyclin T1 = CDK9/cyclin T1 (Homo sapiens, UniProt P50750); assay: Binding affinity to recombinant full-length GFP-fused CDK9/His-tagged cyclin T1 (unknown origin) expressed in HEK293T cells measured after 30 mins by microscale thermophoresis method; design: species or system HEK-293T
[1] = Half life in Sprague-Dawley rat at 2 mg/kg, iv by LC-MS/MS analysis; format: ADME, organism-based; conditions: in vivo
MDA-MB-231 [2] = assay: Induction of apoptosis in human MDA-MB-231 cells assessed as early apoptotic cells at 4 uM measured after 48 hrs by Annexin V-FITC/propidium iodide staining based flow cytometry (0.877%); format: functional
[3] = Toxicity in ICR mouse assessed as toxic reaction at 500 mg/kg, po administered as single dose measured for 7 days; format: organism-based; conditions: in vivo, 168 h
[4] = Toxicity in human MDA-MB-231 cells xenografted BALB/c nu/nu mouse assessed as body weight loss at 22.5 to 90 mg/kg, po administered once daily for 3 weeks and measured at 3 days interval during compound dosing; format: organism-based; conditions: in vivo
Jurkat = assay: Antiproliferative activity against human Jurkat cells assessed as inhibition of cell proliferation measured after 48 hrs by CCK8 assay; format: functional, cell-based
[5] = Clearance in Sprague-Dawley rat at 2 mg/kg, iv by LC-MS/MS analysis; format: ADME, organism-based; conditions: in vivo
MDA-MB-231 [6] = assay: Cell cycle arrest in human MDA-MB-231 cells assessed as accumulation at G0/G1 phase at 8 uM measured after 48 hrs by propidium iodide staining based flow cytometry (reference value: 57.65%); format: functional
[7] = AUC (0 to infinity) in Sprague-Dawley rat at 10 mg/kg, po by LC-MS/MS analysis; format: ADME, organism-based; design: dose 10 mg/kg, time infinity, route oral; conditions: in vivo
MDA-MB-231 [8] = assay: Induction of apoptosis in human MDA-MB-231 cells assessed as late apoptotic cells at 4 uM measured after 48 hrs by Annexin V-FITC/propidium iodide staining based flow cytometry (2.78%); format: functional
[9] = Half life in mouse hepatocytes by LC-MS/MS analysis; format: ADME, cell-based, Hepatocyte
MDA-MB-231 [10] = assay: Induction of apoptosis in human MDA-MB-231 cells assessed as necrotic cells at 8 uM measured after 48 hrs by Annexin V-FITC/propidium iodide staining based flow cytometry (0.498%); format: functional
[11] = Octanol-water partition coefficient, log P of the compound by HPLC-based shake flask method; format: physicochemical

CDK9/cyclin T1, sequence (O60563 whole entry, the tested form may be a part): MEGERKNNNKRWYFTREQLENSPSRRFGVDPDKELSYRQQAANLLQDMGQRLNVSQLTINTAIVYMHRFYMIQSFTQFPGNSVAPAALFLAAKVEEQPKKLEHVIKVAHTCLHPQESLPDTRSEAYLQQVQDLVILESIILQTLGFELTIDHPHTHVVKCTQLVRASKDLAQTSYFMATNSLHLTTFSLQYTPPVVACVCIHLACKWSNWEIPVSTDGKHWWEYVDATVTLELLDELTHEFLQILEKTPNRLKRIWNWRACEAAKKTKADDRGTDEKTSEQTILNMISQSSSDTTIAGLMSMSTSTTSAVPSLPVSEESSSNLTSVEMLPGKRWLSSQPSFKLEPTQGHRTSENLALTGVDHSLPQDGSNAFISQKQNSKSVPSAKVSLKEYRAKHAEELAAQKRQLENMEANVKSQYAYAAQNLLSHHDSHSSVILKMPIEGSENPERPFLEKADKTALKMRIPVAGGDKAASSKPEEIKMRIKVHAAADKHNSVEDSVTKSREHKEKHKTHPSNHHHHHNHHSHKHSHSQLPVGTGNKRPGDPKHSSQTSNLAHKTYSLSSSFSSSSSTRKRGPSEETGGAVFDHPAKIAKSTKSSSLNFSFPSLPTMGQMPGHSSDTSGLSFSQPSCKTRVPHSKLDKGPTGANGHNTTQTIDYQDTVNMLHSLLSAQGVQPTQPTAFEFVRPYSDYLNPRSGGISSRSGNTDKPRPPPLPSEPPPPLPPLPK
CDK9/cyclin T1, sequence (P50750 whole entry, the tested form may be a part): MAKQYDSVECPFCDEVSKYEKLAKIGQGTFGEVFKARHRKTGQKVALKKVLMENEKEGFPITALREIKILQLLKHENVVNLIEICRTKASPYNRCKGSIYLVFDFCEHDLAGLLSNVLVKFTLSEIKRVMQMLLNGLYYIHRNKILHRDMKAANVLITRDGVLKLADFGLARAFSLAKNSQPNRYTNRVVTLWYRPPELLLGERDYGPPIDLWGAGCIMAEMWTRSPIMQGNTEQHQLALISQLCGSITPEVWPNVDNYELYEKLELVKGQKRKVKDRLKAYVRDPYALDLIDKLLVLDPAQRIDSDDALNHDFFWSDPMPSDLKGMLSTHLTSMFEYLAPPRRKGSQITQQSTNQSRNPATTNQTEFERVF

CC(=O)Nc1cccc(Nc2nc(Nc3ccc(N4CCN(C)CC4)cn3)ncc2Cl)c1
pKd (CDK9/cyclin T1): 7.52
half-life [1]: 1.76 h
Activity (MDA-MB-231 [2]): 2.08%
Activity [3]: Non-Toxic
Activity [4]: Non-Toxic
pIC50 (Jurkat): 5.09 to 5.40
clearance [5]: 52.2 mL/min/kg
Activity (MDA-MB-231 [6]): 77.51%
AUC(0-inf) [7]: 926 ng·h/mL
Activity (MDA-MB-231 [8]): 3.15%
half-life [9]: 0.653 h
Activity (MDA-MB-231 [10]): 0.766%
logP [11]: 1.23
